{"source": "patent US20140011930A1", "about": "“Bio-Renewable Carboxylic Acid Esters and Mixtures Thereof Useful as Plasticizers” (TEKNOR APEX COMPANY, priority 2012, published 2014)", "format_in_all_cases": "physicochemical", "key": {"[1]": {"assay": "Oven Stability (210° C.) (ASTM D-1203)"}, "[2]": {"assay": "Hardness (Shore) of PVC compounds (ASTM D-2240)"}, "[3]": {"assay": "Gamma irradiation stability (yellowness index YI)", "text": "Additional advantages of the compounds of the invention are their low cytotoxicity and resistance to gamma radiation especially when compared to the industry standard of di-2-ethylhexyl phthalate (DEHP). Gamma radiation stability is important since it allows for the convenient sterilization of articles prepared from PVC compound. The key performance standard is non-yellowing of the PVC compound after exposure to gamma radiation. An example of the improvement in gamma stability is shown below."}, "[4]": {"assay": "% Volatile Loss (ASTM D-1203)"}, "[5]": {"assay": "Tensile, 100% modulus, elongation of PVC compounds (ASTM D-638)", "design": "100% Modulus: unit not given here"}, "[6]": {"assay": "Brittle Point (ASTM D-746)"}, "[7]": {"assay": "Specific Gravity of PVC compounds (ASTM D-792)"}, "[8]": {"assay": "Dynamic Heat Stability (ASTM D-2538)"}, "[9]": {"assay": "Loop Spew compatibility test (ASTM D-3291)", "experimental": "This plasticizer was evaluated in the same formulations as test compounds 1, 2, 3 along with DEHP and Example 1.\nPVC compounds were prepared with the plasticizers described in Example 1 and Example 2, and a commercial sample of DEHP, containing standard heat stabilizers, antioxidant and a lubricant. The compounds were evaluated in standard laboratory tests according the following ASTM methods: […]"}, "[10]": {"settings": "PVC Test Compound 59-67 A Gauge"}, "[11]": {"settings": "PVC Test Compound 59-67 A Gauge, DEHP vs Example 1/ESO series"}, "[12]": {"settings": "PVC Test Compound 80-85 C Gauge"}, "[13]": {"settings": "PVC Test Compound 80-85 C Gauge, DEHP vs Example 1/ESO series"}, "[14]": {"settings": "PVC Test Compound 81-85 A Gauge"}, "[15]": {"settings": "PVC Test Compound-Gamma Irradiation Stability-A"}, "[16]": {"settings": "Gamma Radiation = 35 kGys (3.5 Mrads)"}, "[17]": {"settings": "Gamma Radiation = 35 kGys (3.5 Mrads), oven aging 48 hr. at 50° C."}}}
{"smiles": "CCCCC(CC)COC(=O)c1ccccc1C(=O)OCC(CC)CCCC", "note": "(stereo not shown) [DEHP, di-(2-ethylhexyl) phthalate]", "values": [{"measurement": "Oven Stability (210° C.) Decomposition Failure", "setting": "[1]; [10]", "value": 50, "unit": "min"}, {"measurement": "Oven Stability (210° C.) Initial Color", "setting": "[1]; [10]", "value": "Clear"}, {"measurement": "Oven Stability (210° C.) Initial Color Failure", "setting": "[1]; [10]", "value": 15, "unit": "min"}, {"measurement": "Oven Stability (210° C.) Decomposition Failure", "setting": "[1]; [11]", "value": 60, "unit": "min"}, {"measurement": "Oven Stability (210° C.) Initial Color", "setting": "[1]; [11]", "value": "Clear"}, {"measurement": "Oven Stability (210° C.) Initial Color Failure", "setting": "[1]; [11]", "value": 15, "unit": "min"}, {"measurement": "Oven Stability (210° C.) Decomposition Failure", "setting": "[1]; [12]", "value": 50, "unit": "min"}, {"measurement": "Oven Stability (210° C.) Initial Color", "setting": "[1]; [12]", "value": "Clear"}, {"measurement": "Oven Stability (210° C.) Initial Color Failure", "setting": "[1]; [12]", "value": 15, "unit": "min"}, {"measurement": "Oven Stability (210° C.) Decomposition Failure", "setting": "[1]; [13]", "value": 50, "unit": "min"}, {"measurement": "Oven Stability (210° C.) Initial Color", "setting": "[1]; [13]", "value": "Clear"}, {"measurement": "Oven Stability (210° C.) Initial Color Failure", "setting": "[1]; [13]", "value": 10, "unit": "min"}, {"measurement": "Oven Stability (210° C.) Decomposition Failure", "setting": "[1]; [14]", "value": 50, "unit": "min"}, {"measurement": "Oven Stability (210° C.) Initial Color", "setting": "[1]; [14]", "value": "Clear"}, {"measurement": "Oven Stability (210° C.) Initial Color Failure", "setting": "[1]; [14]", "value": 15, "unit": "min"}, {"measurement": "Hardness Shore A (15 sec delay)", "setting": "[2]; [10]", "value": 60}, {"measurement": "Hardness Shore A (instant)", "setting": "[2]; [10]", "value": 68}, {"measurement": "Hardness Shore A (15 sec delay)", "setting": "[2]; [11]", "value": 56}, {"measurement": "Hardness Shore A (instant)", "setting": "[2]; [11]", "value": 60}, {"measurement": "Hardness Shore C (10 sec delay)", "setting": "[2]; [12]", "value": 85}, {"measurement": "Hardness Shore C (instant)", "setting": "[2]; [12]", "value": 93}, {"measurement": "Hardness Shore C (10 sec delay)", "setting": "[2]; [13]", "value": 85}, {"measurement": "Hardness Shore C (instant)", "setting": "[2]; [13]", "value": 90}, {"measurement": "Hardness Shore C (10 sec delay)", "setting": "[2]; [14]", "value": 83}, {"measurement": "Hardness Shore C (instant)", "setting": "[2]; [14]", "value": 90}, {"measurement": "Hardness Shore A (15 sec delay)", "setting": "[2]; [15]", "value": 86}, {"measurement": "Hardness Shore A (instant)", "setting": "[2]; [15]", "value": 91}, {"measurement": "Absolute YI After 35 kGys Gamma", "setting": "[3]; [16]", "value": 12.24}, {"measurement": "Change in YI from Original After 35 kGys Gamma", "setting": "[3]; [16]", "value": 5.46}, {"measurement": "Absolute YI After 35 kGys Gamma and Oven Aging (48 hr. at 50° C.)", "setting": "[3]; [17]", "value": 17.58}, {"measurement": "Change in YI from Original After 35 kGys Gamma and Oven Aging (48 hr. at 50° C.)", "setting": "[3]; [17]", "value": 10.80}, {"measurement": "Absolute YI Original", "setting": "[3]; before irradiation", "value": 6.78}, {"measurement": "% Volatile Loss", "setting": "[4]; [10]", "value": 3.54, "unit": "%"}, {"measurement": "% Volatile Loss", "setting": "[4]; [11]", "value": 4.58, "unit": "%"}, {"measurement": "% Volatile Loss", "setting": "[4]; [12]", "value": 1.56, "unit": "%"}, {"measurement": "% Volatile Loss", "setting": "[4]; [13]", "value": 1.67, "unit": "%"}, {"measurement": "% Volatile Loss", "setting": "[4]; [14]", "value": 2.73, "unit": "%"}, {"measurement": "100% Modulus", "setting": "[5]; [10]", "value": 554}, {"measurement": "% Elongation", "setting": "[5]; [10]", "value": 439, "unit": "%"}, {"measurement": "Tensile (psi)", "setting": "[5]; [10]", "value": 1559, "unit": "psi"}, {"measurement": "100% Modulus", "setting": "[5]; [11]", "value": 518}, {"measurement": "% Elongation", "setting": "[5]; [11]", "value": 451, "unit": "%"}, {"measurement": "Tensile (psi)", "setting": "[5]; [11]", "value": 1564, "unit": "psi"}, {"measurement": "100% Modulus", "setting": "[5]; [12]", "value": 3440}, {"measurement": "% Elongation", "setting": "[5]; [12]", "value": 281, "unit": "%"}, {"measurement": "Tensile (psi)", "setting": "[5]; [12]", "value": 3840, "unit": "psi"}, {"measurement": "100% Modulus", "setting": "[5]; [13]", "value": 3617}, {"measurement": "% Elongation", "setting": "[5]; [13]", "value": 282, "unit": "%"}, {"measurement": "Tensile (psi)", "setting": "[5]; [13]", "value": 4083, "unit": "psi"}, {"measurement": "100% Modulus", "setting": "[5]; [14]", "value": 1490}, {"measurement": "% Elongation", "setting": "[5]; [14]", "value": 380, "unit": "%"}, {"measurement": "Tensile (psi)", "setting": "[5]; [14]", "value": 2875, "unit": "psi"}, {"measurement": "Brittle Point ° C.", "setting": "[6]; [10]", "value": "−48.5", "unit": "°C"}, {"measurement": "Brittle Point ° C.", "setting": "[6]; [11]", "value": "−50.5", "unit": "°C"}, {"measurement": "Brittle Point ° C.", "setting": "[6]; [12]", "value": "−17.0", "unit": "°C"}, {"measurement": "Brittle Point ° C.", "setting": "[6]; [13]", "value": "−22", "unit": "°C"}, {"measurement": "Brittle Point ° C.", "setting": "[6]; [14]", "value": "−34.5", "unit": "°C"}, {"measurement": "Specific Gravity", "setting": "[7]; [10]", "value": 1.16}, {"measurement": "Specific Gravity", "setting": "[7]; [11]", "value": 1.16}, {"measurement": "Specific Gravity", "setting": "[7]; [12]", "value": 1.28}, {"measurement": "Specific Gravity", "setting": "[7]; [13]", "value": 1.28}, {"measurement": "Specific Gravity", "setting": "[7]; [14]", "value": 1.23}, {"measurement": "Specific Gravity", "setting": "[7]; [15]", "value": 1.24}, {"measurement": "Dynamic Heat Stability", "setting": "[8]; [10]", "value": 72, "unit": "min"}, {"measurement": "Dynamic Heat Stability", "setting": "[8]; [11]", "value": 54}, {"measurement": "Dynamic Heat Stability", "setting": "[8]; [12]", "value": 19, "unit": "min"}, {"measurement": "Dynamic Heat Stability", "setting": "[8]; [13]", "value": 7, "unit": "min"}, {"measurement": "Dynamic Heat Stability", "setting": "[8]; [14]", "value": 40, "unit": "min"}, {"measurement": "Loop Spew", "setting": "[9]; [10]", "value": "None"}, {"measurement": "Loop Spew", "setting": "[9]; [11]", "value": "None"}, {"measurement": "Loop Spew", "setting": "[9]; [12]", "value": "None"}, {"measurement": "Loop Spew", "setting": "[9]; [13]", "value": "None"}, {"measurement": "Loop Spew", "setting": "[9]; [14]", "value": "None"}]}
